Measurements as given in patent publication US20240148780A1, “COMPOSITION AND USE OF AN OPHTHALMIC SOLUTION BASED ON HYALURONIC ACID AND ARABINOGALACTAN” (MD ITALY SRL, priority 2019, published 2024).

Experiments:
[1] = system: isolated hepatocytes and microsomal fractions from rat liver; conditions: compared with an equivalent amount of directly-added free alpha-tocopherol; cited from earlier work
xanthine oxidase [2] = target: T1, xanthine oxidase (Homo sapiens, UniProt P47989); assay: Xanthine oxidase (XOD) reaction inhibition: formation of uric acid; format: biochemical
T1 sequence (P47989 whole entry, species assumed): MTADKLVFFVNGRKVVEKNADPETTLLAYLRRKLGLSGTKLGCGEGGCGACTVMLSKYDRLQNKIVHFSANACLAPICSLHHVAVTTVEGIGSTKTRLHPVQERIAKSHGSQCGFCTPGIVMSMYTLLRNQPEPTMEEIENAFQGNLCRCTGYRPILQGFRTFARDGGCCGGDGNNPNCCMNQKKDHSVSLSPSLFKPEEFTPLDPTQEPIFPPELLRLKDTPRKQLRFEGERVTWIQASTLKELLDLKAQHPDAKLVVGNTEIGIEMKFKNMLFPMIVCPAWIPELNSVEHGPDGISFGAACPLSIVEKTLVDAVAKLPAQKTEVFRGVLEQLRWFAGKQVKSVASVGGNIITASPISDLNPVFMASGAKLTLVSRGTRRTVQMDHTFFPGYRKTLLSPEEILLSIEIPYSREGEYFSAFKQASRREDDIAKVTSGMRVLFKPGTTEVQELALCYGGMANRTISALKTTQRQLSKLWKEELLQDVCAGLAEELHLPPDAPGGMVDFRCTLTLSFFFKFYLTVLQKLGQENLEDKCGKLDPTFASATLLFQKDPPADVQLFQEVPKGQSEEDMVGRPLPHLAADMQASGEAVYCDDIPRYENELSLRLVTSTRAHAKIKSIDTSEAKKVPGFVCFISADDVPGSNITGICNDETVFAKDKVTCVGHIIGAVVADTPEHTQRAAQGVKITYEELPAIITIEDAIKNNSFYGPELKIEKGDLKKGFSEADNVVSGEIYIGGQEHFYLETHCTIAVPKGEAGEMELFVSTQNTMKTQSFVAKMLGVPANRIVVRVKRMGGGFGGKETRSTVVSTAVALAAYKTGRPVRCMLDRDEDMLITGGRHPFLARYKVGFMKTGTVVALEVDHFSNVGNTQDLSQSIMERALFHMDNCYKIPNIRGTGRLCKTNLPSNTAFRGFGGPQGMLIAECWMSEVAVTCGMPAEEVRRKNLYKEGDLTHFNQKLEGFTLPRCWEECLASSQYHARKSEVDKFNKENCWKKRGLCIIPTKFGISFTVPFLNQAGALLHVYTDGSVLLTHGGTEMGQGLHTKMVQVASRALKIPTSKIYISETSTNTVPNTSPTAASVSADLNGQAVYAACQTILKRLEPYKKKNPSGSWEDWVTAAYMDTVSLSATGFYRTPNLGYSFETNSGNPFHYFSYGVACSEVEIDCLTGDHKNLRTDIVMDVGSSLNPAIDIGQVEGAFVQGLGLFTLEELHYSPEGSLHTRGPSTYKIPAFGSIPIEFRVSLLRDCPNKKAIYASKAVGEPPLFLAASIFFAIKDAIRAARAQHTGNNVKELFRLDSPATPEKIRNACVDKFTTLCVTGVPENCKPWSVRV
Protocol: The effect of arabinogalactan, hyaluronic acid and the association thereof was investigated by monitoring the formation of uric acid over time (0, 1, 5, 10, 15, 30 min). Uric acid concentration was determined at 291 nm using a DR6000 UV spectrophotometer (Hach, Lange). The absorbance value is related to the concentration by means of the Lambert-Beer law:
where A is the absorbance of uric acid at 291 nm, ε is the molar absorption coefficient, b is the optical path (thickness of the cuvette in which the solution is contained) and C is the uric acid concentration.
The blank/control consists of: 50 μM xanthine, 10 mg L^−1 of xanthine oxidase (XO) (0.00016 μUI of enzyme) in borate buffer solution (see table 3) 7.2≤pH≤7.8). The effect of the components of the eye drops was investigated by adding the individual components to the blank solution: respectively • (i) 0.4% (w/w) of arabinogalactan (AG) • (ii) 0.15% (w/w) of hyaluronic acid (HA) • (iii) association of 0.4% (w/w) of AG+0.15% (w/w) of HA (mix AG+HA). • (iii) Eye drops corresponding to the formulation of Tab.3.
All the tests were conducted at least in triplicate.
The uric acid formation reductions were calculated as: […]
where C30-(i) is the final concentration (30 min) of uric acid in the i-th test and C30-control is the uric acid concentration at 30 min in the blank (control).
Furthermore, the inhibition evaluation reported above was also carried out in borate buffer for arabinogalactan, for hyaluronic acid and for the association thereof, and finally for the eye drops formulation of the present invention, also comprising panthenol, vitamin E-TGPS and trehalose.

[3] = Rheology, plate viscometer in oscillation mode (G″, G′); format: physicochemical; conditions: HA 0.15% w/w, AG 0.4% w/w
Protocol: In addition to the evaluation of the effect of arabinogalactan, hyaluronic acid and the association thereof on xanthine oxidase activity and in order to characterize the possible interaction thereof, to justify the inhibitory effect thereof, rheology measurements were carried out with the hypothesis that the two macrostructures, arabinogalactan on the one hand and hyaluronic acid on the other, could modify the rheological trend of the formulation of the present invention.
With reference to FIG. 3, the characterization of the following solutions was carried out using an AM Instruments Plate Viscometer, in Oscillation Mode. The following solutions were measured: • Sample 1: Hyaluronic acid solution at 0.15% w/w • Sample 2: Arabinogalactan solution 0.4% +Hyaluronic acid 0.15% w/v • Sample 3: Arabinogalactan solution 0.4% w/w.
1: Hyaluronic acid 0.15% w/w • Solution no. 2: Arabinogalactan 0.4%+hyaluronic acid 0.15% w/w • Solution no. 3: Arabinogalactan 0.4% w/w • Interpretation of the Results: […]

[4] = Viscosity as a function of shear rate, plate viscometer; format: physicochemical
Protocol: Given the results obtained, the characterization was further extended to determine the viscosity as a function of the shear rate, always using a Plate Viscometer, in particular the following solutions were measured. • Sample 1: Hyaluronic acid • Sample 2: Hyaluronic acid+Arabinogalactan • Sample 3: Eye drops A • Sample 4: Arabinogalactan
The description of the graph can be further exemplified by the following table which reports the viscosity values (mPa·s$) at 10[1/s] at a fixed point corresponding to A.

xanthine oxidase [5] = target: T1, xanthine oxidase; assay: Superoxide anion production by xanthine oxidase, detected by ferrocytochrome C reduction; format: biochemical; conditions: xanthine oxidase reaction
Text: Any inhibition is particularly important because the superoxide anion production is at the origin, at least in part, of the inflammatory phenomena of the ocular surface. The superoxide anion produced by xanthine oxidase in the oxidation reaction of xanthine was detected by the reduction of […] to […] by the same superoxide anion (O2^−·) (Fridovich). The reaction is reported here for clarity:
Fe^3+Cit.C+Superoxide Anion-----→Fe^2+Cit.C
The effect of arabinogalactan, hyaluronic acid, and the association thereof on superoxide anion production over time (0, 1, 5, 10, 15, 30 min) was investigated. The production of superoxide anion was determined by the reduction of ferrocytochrome C (3+) to ferrocytochrome C (2+), monitoring absorption at 551 nm using a DR6000 UV spectrophotometer (Hach, Lange). The tests for the determination of superoxide anion production were carried out still using the xanthine oxidase reaction used previously.
Produced by the superoxide anion, the ferrocytochrome C was calculated considering a molar absorption equal to 2.1×10^4 M^−1·cm^−1 (Ref. 16-17). The superoxide inhibition evaluation reported above was performed for arabinogalactan, hyaluronic acid, and the association thereof. Furthermore, the eye drops formulation of the present invention was also evaluated, also comprising panthenol, vitamin E-TGPS and trehalose.

Molecule: Cc1c(C)c2c(c(C)c1OC(=O)CCC(=O)O)CC[C@@](C)(CCC[C@H](C)CCC[C@H](C)CCCC(C)C)O2 [TS, alpha-tocopherol succinate, reference compound]
- Antioxidant protection [1]: more effective antioxidant protection than an equivalent amount of directly-added free alpha-tocopherol

Molecule: Hyaluronic acid
- Uric acid μM produced in 30 minutes (xanthine oxidase [2]; 50 μM xanthine, 10 mg L−1 xanthine oxidase, borate buffer, AG 0.4% w/w, HA 0.15% w/w, 30 min): 15.3 µM
- Inhibition % of uric acid production (xanthine oxidase [2]; 50 μM xanthine, 10 mg L−1 xanthine oxidase, borate buffer, AG 0.4% w/w, HA 0.15% w/w, 30 min vs blank): 0%
- Uric acid μM produced per minute (xanthine oxidase [2]; per minute, same reaction, linear kinetics assumed): 0.51 µM
- Trend of G″ (Loss Modulus Viscosity) [3]: always with a value higher than the other measured solutions
- Viscosity trend as a function of shear rate ([4]; FIG. 4): linear trend (Newtonian) higher viscosity
- Viscosity ([4]; at 10 [1/s], fixed point): 1.50 mPa·s
- Fe+2 Cit.C μM produced per minute (xanthine oxidase [5]; per minute): 0.42 µM
- Fe+2 Cit.C μM produced in 30 minutes (xanthine oxidase [5]; 551 nm, 30 min): 12.6 µM
- Inhibition % of Fe+2 Cit.C production (superoxide anion) (xanthine oxidase [5]; 551 nm, 30 min vs control): 17.2%

Molecule: alpha-tocopherol polyethylene glycol 1000 succinate [TPGS]
- Antioxidant protection [1]: more effective antioxidant protection than an equivalent amount of directly-added free alpha-tocopherol
